Earlier results, collected in patent US20060292216A1, “Enteric delivery of (-)-hydroxycitric acid” (priority 2003, published 2006).

How the values were obtained:
[1] = tested on: human hepatoma cell line Hep G2
[2] = tested on: experimental animals fed a high-sugar diet; conditions: single large oral dose or two divided oral doses totaling one fourth of it
test subjects = conditions: chronic administration; resting and exercising conditions
humans = conditions: conditions that elevate de novo lipogenesis
[3] = tested on: middle-aged rats fed a 30% fat diet

O=C(O)CC(O)(C(=O)O)C(O)C(=O)O (single isomer, unassigned; (-)) [HCA, (−)-hydroxycitric acid]
cholesterol biosynthesis, of the control value, by incorporation from 3H2O [1]: 27 % of the control value | incorporation of [1,5-14C]citrate into fatty acids and cholesterol ([1]; 0.5 mM or higher, 2.5 h and 18 h incubations): strongly inhibited | reduction in food consumption [2]: ≥ 10% | respiratory exchange ratio (test subjects): significantly lower | fat synthesis and energy expenditure (humans): reduced fat synthesis and increased energy expenditure

O=C([O-])CC(O)(C(=O)[O-])C(O)C(=O)[O-].[K+].[K+].[K+] (stereo not drawn) [potassium HCA]
protein and fat as percentage of body weight [3]: increased protein as a percentage of body weight while reducing fat as a percentage of body weight
